Consider 2 compounds from patent US11608342B2, “PDE9 inhibitors with imidazo triazinone backbone and imidazo pyrazinone backbone for treatment of peripheral diseases” (H. LUNDBECK A/S, priority 2015, dated 2023).

Data set [1] is described as follows: Blood Brain Barrier penetration (brain-to-plasma distribution). The data set is classed as in vivo, Male CD mice. The conditions noted are these: mouse, 10 mg/kg subcutaneous. The method, then:
Male CD mice (20-24 g) were housed pair-wise with free access to food and water for an acclimatization period of 3-7 days before initiation of experiments. Prior to dosing the animals were fasted overnight. During testing, mice were kept in individual cages. The brain-to-plasma distribution was assessed 30 minutes and 2 hours after subcutaneous administration of the test compound at a dose of 10 mg/kg (n=3 at each time point). The dose volume was 10 ml/kg using appropriate vehicle to solubilize each test compound. At the time of sampling, animals were anesthetized with isoflurane and a systemic blood sample collected by cardiac puncture into vacutainers containing sodium heparin as anti-coagulant. The blood was centrifuged at 3500 rpm for 10 minutes at 4° C. to obtain plasma. Following decapitation, brains were dissected out and transferred to pre-weighed vessels followed by tissue weights determination. Plasma and brains were stored at −80° C. until quantitative bioanalysis by LC-MS/MS. Results are expressed as ng/ml for plasma and ng/g for brain samples.

Data set [2] deals with PDE9 (Homo sapiens (Human), UniProt O76083). Description: PDE9 inhibition assay. The data set is classed as biochemical. The conditions noted are these: 3H-cAMP substrate, SPA. As to the method:
Reactions are initiated by addition of the cyclic nucleotide substrate, and reactions are allowed to proceed for one hr at room temperature before being terminated through mixing with 15 uL 8 mg/mL yttrium silicate SPA beads (Amersham). […] Following a 1 hour incubation the reactions were terminated by addition of 15 uL 8 mg/mL yttrium silicate SPA beads (Amersham). […] IC50 values were calculated by nonlinear regression using XLfit (IDBS).

pIC50: −log10 of the molar value.

Sequence of PDE9 (O76083 whole entry): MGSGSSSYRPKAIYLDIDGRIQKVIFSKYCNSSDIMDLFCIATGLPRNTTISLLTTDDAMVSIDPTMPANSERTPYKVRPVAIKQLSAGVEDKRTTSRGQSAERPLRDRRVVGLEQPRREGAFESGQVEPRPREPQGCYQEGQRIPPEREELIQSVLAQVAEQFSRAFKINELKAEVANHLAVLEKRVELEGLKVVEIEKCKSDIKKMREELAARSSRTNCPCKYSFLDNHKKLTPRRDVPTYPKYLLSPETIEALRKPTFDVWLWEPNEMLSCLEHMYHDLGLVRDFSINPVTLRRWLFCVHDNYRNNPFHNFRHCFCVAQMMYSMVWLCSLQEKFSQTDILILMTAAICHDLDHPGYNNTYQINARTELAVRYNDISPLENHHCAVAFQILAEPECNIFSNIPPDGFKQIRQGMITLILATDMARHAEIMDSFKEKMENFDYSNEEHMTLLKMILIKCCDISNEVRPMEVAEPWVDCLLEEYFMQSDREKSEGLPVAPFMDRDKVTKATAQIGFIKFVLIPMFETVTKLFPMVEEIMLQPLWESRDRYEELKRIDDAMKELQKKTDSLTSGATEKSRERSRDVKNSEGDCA

As to `O=c1[nH]c(CN2CC(Oc3cccnc3)C2)cn2c(C3CCOCC3)ncc12` [Compound (P2), 6-[3-(pyridin-3-yloxy)-azetidin-1-ylmethyl]-3-(tetrahydropyran-4-yl)-7H-imidazo[1,5-a]pyrazin-8-one], the “Brain concentration after 30 minutes” value in data set [1] (30 min) is “Below detection”. The “Brain concentration after 120 minutes” value in data set [1] is on record as “Below detection”.
`C[C@@H]1CN(Cc2ncccn2)C[C@H]1c1cn2c(C3CCOCC3)ncc2c(=O)[nH]1` (single isomer, unassigned) [Compound (P3, enantiomer 1)]: the “Brain concentration after 120 minutes” value in data set [1] is on record as 120 mm.: 7 ng/mL. Besides, the pIC50 (commonly the negative decadic logarithm of the IC50, by convention in mol/L) in data set [2] was 7.31.
